Patent publication US20230391772A1, “METHODS AND COMPOSITIONS FOR TARGETED PROTEIN DEGRADATION” (Ranok Therapeutics (Hangzhou) Co. Ltd., priority 2020, published 2023)

Assays:
[1] = test system: NCI-H358 human non-small cell lung cancer; assay: NCI-H358 CCK-8 proliferation assay; assay type: cell-based; details: NCI-H358 cells, 72 hr
Method: The following cancer cell lines were employed: BT-474 human breast carcinoma (ATCC, #HTB-20); MIA PaCa-2 human pancreatic carcinoma [2 copies KRAS(G12C)](ATCC, #CRL-1420); NCI-H23 human non-small cell lung cancer [1 copy KRAS(G12C)](ATCC, #CRL-5800); NCI-H358 human non-small cell lung cancer [1 copy KRAS(G12C)](ATCC, #CRL-5807); LU65A human lung carcinoma (Pharmaron, Beijing, China). Cell lines were cultured essentially according to ATCC and Pharmaron recommendations.
Cancer Cell Line Proliferation (CCK-8) Assays
3-fold serial dilutions of each test compound were prepared ranging from 20 μM to 1.02 nM.
% Inhibition=100−(D−B)/(S−B)*100%. • S: Absorbance of cells treated with DMSO • D: Absorbance of compound-treated cells • B: Absorbance of medium with DMSO without cells

HSP90a protein = target: T1, HSP90a protein (Homo sapiens, UniProt P07900); assay: HSP90α-binding fluorescent polarization (FP) assay, BODIPY-labeled RNK04010 probe; details: FP competition with RNK04010 (BODIPY-labeled), 5 nM, 300 min at 25° C.
T1 construct: purchased BPS Bioscience 50298
Outline: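 N-terminal HSP90a construct; tracer 5 nM final (FITC-geldanamycin or BODIPY-RNK04010, a labeled triazolone binder). Compounds 20 μM–5.2 nM, 2.5-fold steps. 25° C, 120 min (FITC) / 300 min (BODIPY). FP readout.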

C=CC(=O)N1CCN(c2nc(NCCC(=O)N3CCC(CN4CCN(Cc5ccc(-n6c(O)nnc6-c6ccc(O)cc6O)cc5)CC4)CC3)nc3c2CCN(c2cc(O)cc4ccccc24)C3)CC1 [Compound 13, 1-(4-(2-((3-(4-((4-(4-(3-(2,4-dihydroxyphenyl)-5-hydroxy-4H-1,2,4-triazol-4-yl)benzyl)piperazin-1-yl)methyl)piperidin-1-yl)-3-oxopropyl)amino)-7-(3-hydroxynaphthalen-1-yl)-5,6,7,8-tetrahydropyrido[3,4-d]pyrimidin-4-yl)piperazin-1-yl)prop-2-en-1-one, trifluoroacetic acid] was tested, and the EC50 [1] was > 1000 nM and the IC50 (HSP90a protein) was > 1000 nM.

In the case of C=CC(=O)N1CCN(c2nc(NCCC(=O)NCCOCCOCCN[C@@H](C)C(=O)N[C@H](C(=O)N3CCC[C@H]3C(=O)Nc3snnc3-c3ccccc3)C3CCCCC3)nc3c2CCN(c2cc(O)cc4ccccc24)C3)CC1 [Compound 20, (S)-1-((2S,5S)-18-((4-(4-acryloylpiperazin-1-yl)-7-(3-hydroxynaphthalen-1-yl)-5,6,7,8-tetrahydropyrido[3,4-d]pyrimidin-2-yl)amino)-2-cyclohexyl-5-methyl-4,16-dioxo-9,12-dioxa-3,6,15-triazaoctadecanoyl)-N-(4-phenyl-1,2,3-thiadiazol-5-yl)pyrrolidine-2-carboxamide, trifluoroacetic acid], the EC50 [1] is reported as > 1000 nM and the IC50 (HSP90a protein) is reported as > 1000 nM.

With CC(=O)N1CCN(c2nc(NCCC(=O)NCCc3ccc(-n4c(O)nnc4-c4cc(C(C)C)c(O)cc4O)cc3)nc3c2CCN(c2cc(O)cc4ccccc24)C3)CC1 [Compound 22, 3-((4-(4-acetylpiperazin-1-yl)-7-(3-hydroxynaphthalen-1-yl)-5,6,7,8-tetrahydropyrido[3,4-d]pyrimidin-2-yl)amino)-N-(4-(3-(2,4-dihydroxy-5-isopropylphenyl)-5-hydroxy-4H-1,2,4-triazol-4-yl)phenethyl)propanamide, trifluoroacetic acid] the EC50 [1] was > 1000 nM and the IC50 (HSP90a protein) was < 100 nM.

In the case of CC(=O)N1CCN(c2nc(NCCC(=O)N3CCN(Cc4ccc(-n5c(O)nnc5-c5cc(C(C)C)c(O)cc5O)cc4)CC3)nc3c2CCN(c2cc(O)cc4ccccc24)C3)CC1 [Compound 26, 3-((4-(4-acetylpiperazin-1-yl)-7-(3-hydroxynaphthalen-1-yl)-5,6,7,8-tetrahydropyrido[3,4-d]pyrimidin-2-yl)amino)-1-(4-(4-(3-(2,4-dihydroxy-5-isopropylphenyl)-5-hydroxy-4H-1,2,4-triazol-4-yl)benzyl)piperazin-1-yl)propan-1-one, trifluoroacetic acid], the EC50 [1] is reported as > 1000 nM and the IC50 (HSP90a protein) is reported as 100 to 1000 nM.

For C=CC(=O)N1CCN(c2nc(NCCC(=O)NCc3ccc(-n4c(O)nnc4-c4ccc(O)cc4O)cc3)nc3c2CCN(c2cc(O)cc4ccccc24)C3)CC1 [Compound 27, 3-((4-(4-acryloylpiperazin-1-yl)-7-(3-hydroxynaphthalen-1-yl)-5,6,7,8-tetrahydropyrido[3,4-d]pyrimidin-2-yl)amino)-N-(4-(3-(2,4-dihydroxyphenyl)-5-hydroxy-4H-1,2,4-triazol-4-yl)benzyl)propanamide, trifluoroacetic acid], the EC50 [1] was > 1000 nM and the IC50 (HSP90a protein) was > 1000 nM.

CC(=O)N1CCN(c2nc(NCCC(=O)N3CCC(Cc4ccc(-n5c(O)nnc5-c5cc(C(C)C)c(O)cc5O)cc4)CC3)nc3c2CCN(c2cc(O)cc4ccccc24)C3)CC1 [Compound 28, 3-((4-(4-acetylpiperazin-1-yl)-7-(3-hydroxynaphthalen-1-yl)-5,6,7,8-tetrahydropyrido[3,4-d]pyrimidin-2-yl)amino)-1-(4-(4-(3-(2,4-dihydroxy-5-isopropylphenyl)-5-hydroxy-4H-1,2,4-triazol-4-yl)benzyl)piperidin-1-yl)propan-1-one, trifluoroacetic acid] was tested, and the EC50 [1] was > 1000 nM and the IC50 (HSP90a protein) was 100 to 1000 nM.

CC(=O)N1CCN(c2nc(NCCC(=O)N3CCC(CN4CCC(Cc5ccc(-n6c(O)nnc6-c6cc(C(C)C)c(O)cc6O)cc5)CC4)CC3)nc3c2CCN(c2cc(O)cc4ccccc24)C3)CC1 [Compound 29, 3-((4-(4-acetylpiperazin-1-yl)-7-(3-hydroxynaphthalen-1-yl)-5,6,7,8-tetrahydropyrido[3,4-d]pyrimidin-2-yl)amino)-1-(4-((4-(4-(3-(2,4-dihydroxy-5-isopropylphenyl)-5-hydroxy-4H-1,2,4-triazol-4-yl)benzyl)piperidin-1-yl)methyl)piperidin-1-yl)propan-1-one, trifluoroacetic acid] was tested, and the EC50 [1] was > 1000 nM and the IC50 (HSP90a protein) was 100 to 1000 nM.

With CCC(=O)N1CCN(c2nc(NCCC(=O)NCc3ccc(-n4c(O)nnc4-c4cc(C)c(O)cc4O)cc3)nc3c2CCN(c2cc(O)cc4ccccc24)C3)CC1 [Compound 30, N-(4-(3-(2,4-dihydroxy-5-methylphenyl)-5-hydroxy-4H-1,2,4-triazol-4-yl)benzyl)-3-((7-(3-hydroxynaphthalen-1-yl)-4-(4-propionylpiperazin-1-yl)-5,6,7,8-tetrahydropyrido[3,4-d]pyrimidin-2-yl)amino)propanamide, trifluoroacetic acid] the EC50 [1] was > 1000 nM and the IC50 (HSP90a protein) was > 1000 nM.

For CCC(=O)N1CCN(c2nc(NCCC(=O)NCc3ccc(-n4c(O)nnc4-c4ccc(O)cc4O)cc3)nc3c2CCN(c2cc(O)cc4ccccc24)C3)CC1 [Compound 31, N-(4-(3-(2,4-dihydroxyphenyl)-5-hydroxy-4H-1,2,4-triazol-4-yl)benzyl)-3-((7-(3-hydroxynaphthalen-1-yl)-4-(4-propionylpiperazin-1-yl)-5,6,7,8-tetrahydropyrido[3,4-d]pyrimidin-2-yl)amino)propanamide, trifluoroacetic acid], the EC50 [1] was > 1000 nM and the IC50 (HSP90a protein) was > 1000 nM.

CCCc1cc(-c2nnc(O)n2-c2ccc(CNC(=O)CCNc3nc4c(c(N5CCN(C(=O)CC)CC5)n3)CCN(c3cc(O)cc5ccccc35)C4)cc2)c(O)cc1O [Compound 32, N-(4-(3-(2,4-dihydroxy-5-propylphenyl)-5-hydroxy-4H-1,2,4-triazol-4-yl)benzyl)-3-((7-(3-hydroxynaphthalen-1-yl)-4-(4-propionylpiperazin-1-yl)-5,6,7,8-tetrahydropyrido[3,4-d]pyrimidin-2-yl)amino)propanamide, trifluoroacetic acid] was tested, and the EC50 [1] was > 1000 nM and the IC50 (HSP90a protein) was > 1000 nM.

With CCC(=O)N1CCN(c2nc(NCCC(=O)NCc3ccc(-n4c(O)nnc4-c4cc(C(C)C)c(O)cc4O)cc3F)nc3c2CCN(c2cc(O)cc4ccccc24)C3)CC1 [Compound 33, N-(4-(3-(2,4-dihydroxy-5-isopropylphenyl)-5-hydroxy-4H-1,2,4-triazol-4-yl)-2-fluorobenzyl)-3-((7-(3-hydroxynaphthalen-1-yl)-4-(4-propionylpiperazin-1-yl)-5,6,7,8-tetrahydropyrido[3,4-d]pyrimidin-2-yl)amino)propanamide, trifluoroacetic acid] the EC50 [1] was > 1000 nM and the IC50 (HSP90a protein) was 100 to 1000 nM.

With CCC(=O)N1CCN(c2nc(NCCC(=O)NCc3ccc(-n4c(O)nnc4-c4cc(CC)c(O)cc4O)cc3F)nc3c2CCN(c2cc(O)cc4ccccc24)C3)CC1 [Compound 34, N-(4-(3-(5-ethyl-2,4-dihydroxyphenyl)-5-hydroxy-4H-1,2,4-triazol-4-yl)-2-fluorobenzyl)-3-((7-(3-hydroxynaphthalen-1-yl)-4-(4-propionylpiperazin-1-yl)-5,6,7,8-tetrahydropyrido[3,4-d]pyrimidin-2-yl)amino)propanamide, trifluoroacetic acid] the EC50 [1] was > 1000 nM and the IC50 (HSP90a protein) was > 1000 nM.

With CCC(=O)N1CCN(c2nc(NCCC(=O)N3CCN(Cc4ccc(-n5c(O)nnc5-c5cc(C(C)C)c(O)cc5O)cc4)CC3)nc3c2CCN(c2cc(O)cc4ccccc24)C3)CC1 [Compound 35, 1-(4-(4-(3-(2,4-dihydroxy-5-isopropylphenyl)-5-hydroxy-4H-1,2,4-triazol-4-yl)benzyl)piperazin-1-yl)-3-((7-(3-hydroxynaphthalen-1-yl)-4-(4-propionylpiperazin-1-yl)-5,6,7,8-tetrahydropyrido[3,4-d]pyrimidin-2-yl)amino)propan-1-one, trifluoroacetic acid] the EC50 [1] was > 1000 nM and the IC50 (HSP90a protein) was 100 to 1000 nM.

For C=CC(=O)N1CCN(c2nc(NCCC(=O)NCc3ccc(-n4c(O)nnc4-c4cc(C(C)C)c(O)cc4O)cc3C(F)(F)F)nc3c2CCN(c2cc(O)cc4ccccc24)C3)CC1 [Compound 36, 3-((4-(4-acryloylpiperazin-1-yl)-7-(3-hydroxynaphthalen-1-yl)-5,6,7,8-tetrahydropyrido[3,4-d]pyrimidin-2-yl)amino)-N-(4-(3-(2,4-dihydroxy-5-isopropylphenyl)-5-hydroxy-4H-1,2,4-triazol-4-yl)-2-(trifluoromethyl)benzyl)propanamide, trifluoroacetic acid], the EC50 [1] was > 1000 nM and the IC50 (HSP90a protein) was 100 to 1000 nM.

CCC(=O)N1CCN(c2nc(NCCC(=O)NCc3ccc(-n4c(O)nnc4-c4cc(CC)c(O)cc4O)cc3)nc3c2CCN(c2cc(O)cc4ccccc24)C3)CC1 [Compound 37, N-(4-(3-(5-ethyl-2,4-dihydroxyphenyl)-5-hydroxy-4H-1,2,4-triazol-4-yl)benzyl)-3-((7-(3-hydroxynaphthalen-1-yl)-4-(4-propionylpiperazin-1-yl)-5,6,7,8-tetrahydropyrido[3,4-d]pyrimidin-2-yl)amino)propanamide, trifluoroacetic acid] was tested, and the EC50 [1] was > 1000 nM and the IC50 (HSP90a protein) was 100 to 1000 nM.
